{"source": "patent US9107909B2", "about": "“Materials and methods to enhance hematopoietic stem cells engraftment procedures” (priority 2008, dated 2015)", "key": {"SKL cells [1]": {"test_system": "SKL cells", "test": "Apoptosis assay (Annexin-V+ SKL cells)", "type": "cell-based, mouse", "conditions": "for apoptosis of SKL cells in vitro: 0.1 nanoMolar-1 microMolar", "protocol": "Lin^neg cells were treated on ice with 0.1 nanoMolar to 1 microMolar dmPGE2 or vehicle control, washed and incubated in RPMI-1640+2% FBS, without growth factors at 37° C. to induce apoptosis. After 24 hours, cells were stained for SKL and Annexin-V and the proportion of Annexin-V^+ SKL cells was determined by FACS.\nApoptosis is an important regulatory process in normal and malignant hematopoiesis and PGE2 has been implicated in anti-apoptotic signalling. Moreover, activation of cAMP, a downstream signaling molecule of EP receptors, inhibits apoptosis in CD34^+ cells. […] To evaluate an effect of dmPGE2 on HSPC survival, Lin^neg cells were pulsed with 0.1 nanoMolar-1 microMolar dmPGE2 or vehicle and cultured in serum-reduced culture medium without growth factors."}, "UCB CD34+ cells": {"test_system": "UCB CD34+ cells", "test": "Migration of human UCB CD34+ cells to rhSDF-1", "type": "cell-based", "conditions": "pulse exposure", "protocol": "Freshly isolated UCB CD34^+ cells were pulsed with dmPGE2 or vehicle for 2 hours, washed and resuspended in media with 10% HI-FCS and cultured at 37° C. for 16 hours. After incubation, cells were washed, resuspended in RPMI/0.5% BSA and migration to rhSDF-1 measured by flow cytometry. To block the CXCR4 receptor, replicate cells were incubated with 5 micrograms/ml AMD3100 for 30 minutes prior to the migration assay. Referring now to FIG. 10, the data are the Mean±SEM percentage migration for 3 experiments."}, "[2]": {"test_system": "Survivin in CD34+ UCB cells", "test": "Intracellular Survivin by FACS, human CD34+ UCB cells", "type": "cell-based", "conditions": "24 hours post-pulse, vs control", "text": "All antibodies were purchased from BD Biosciences unless otherwise noted. For detection and sorting of murine KL and SKL cells, streptavidin conjugated with PE-Cy7 (to stain for biotinylated MACS lineage antibodies (Miltenyi Biotech, Auburn, Calif.)), c-kit-APC, Sca-1-PE or APC-Cy7, CD45. 1-PE and CD45.2-FITC were used. UCB CD34^+ cells were detected using anti-human-CD34-APC. For multilineage analysis, APC-Cy7-Mac-1, PE-Cy7-B-220 and APC-CD3 were used. EP receptors were detected with anti EP1, EP2, EP3 and EP4 rabbit IgG (Cayman Chemicals) and secondary staining with FITC-goat-anti-rabbit IgG (Southern Biotech, Birmingham, Ala.). CXCR4 expression was analyzed using streptavidin-PECy7, c-kit-APC, Sca-1-APC-Cy7, and CXCR4-PE. Apoptosis was measured with FITC-Annexin-V. For Survivin and active caspase-3 detection, cells were permeabilized and fixed using the CytoFix/CytoPerm kit (BD) and stained with anti-active-caspase-3-FITC Flow Kit (BD) or Survivin-PE (R&D Systems).\nExpression of EP receptors, CXCR4 and Survivin Replicate Lin^neg cell samples from CD45.2 mice were stained for SKL and each of the EP receptors and surface receptor expression on KL and SKL cells determined by FACS. […] Replicate cells were stained for CD34 and each of the EP receptors and surface expression determined by FACS. […]"}, "SKL cells [3]": {"test_system": "SKL cells", "test": "Transwell migration of murine SKL cells to rmSDF-1α", "type": "cell-based, mouse", "conditions": "pulsed 2 hours, cultured 16 hours, migration 4 hours; vs vehicle", "protocol": "Freshly isolated Lineage^neg mouse bone marrow cells were pulsed with dmPGE2 or vehicle for 2 hours, washed and resuspended in media with 10% HI-FCS and cultured at 37° C. for 16 hours. After incubation, cells were washed, resuspended in RPMI/0.5% BSA and allowed to migrate in transwells to rmSDF-1α for 4 hours. Total cell migration was measured by flow cytometry. Referring now to FIG. 9, total SKL cell migration was higher for cells pulsed with dmPGE2. Data are the Mean±SEM percent migration for 3 experiments. ^†P<0.05 for dmPGE2 treated cells compared to cells treated with vehicle."}}}
{"smiles": "CCCCC[C@H](O)/C=C/[C@H]1[C@H](O)CC(=O)[C@@H]1C/C=C\\CCCC(=O)O", "note": "[PGE2, Prostaglandin E2]", "values": [{"measurement": "apoptosis of SKL cells in vitro", "setting": "SKL cells [1]", "result": "dose-dependently decreased apoptosis"}, {"measurement": "migration of human CD34+ cells to SDF-1α", "setting": "UCB CD34+ cells", "result": "Increases Migration"}]}
{"smiles": "CCCCC(C)(C)[C@H](O)/C=C/[C@H]1[C@H](O)CC(=O)[C@@H]1C/C=C\\CCCC(=O)O", "note": "[dmPGE2, 16,16-dimethyl prostaglandin E2]", "values": [{"measurement": "apoptosis of SKL cells in vitro", "setting": "SKL cells [1]", "result": "reduced apoptosis in SKL cells in a dose dependent fashion"}, {"measurement": "inhibition of apoptosis in SKL cells", "setting": "SKL cells [1]; at 1 microMolar, serum-reduced medium without growth factors, 24 hours", "result": "~65", "unit": "%"}, {"measurement": "increase in intracellular Survivin, CD34+ UCB cells", "setting": "[2]", "result": 2.4, "unit": "fold"}, {"measurement": "total SKL cell migration to rmSDF-1α", "setting": "SKL cells [3]", "result": "higher"}]}
